According to patent publication US20260041652A1, “SYSTEM AND METHOD FOR PREVENTING ALOPECIA” (Follea International, priority 2024, published 2026):

Test system: scalp hair follicles
Assay: Epilation force measured with trichotillometer vs placebo (Example 5)
Assay type: in vivo, human
Conditions: 10% solution vs placebo, average of 10 subjects; listed as 10% PE
Method: To evaluate the effect of a topically applied α1-AR agonist on the force required to pluck hairs from the scalp, a hand-held spring dynamometer, or “trichotillometer” was used (8). The trichotillometer records the maximum force threshold, in grams, required to pluck a single hair from the scalp; the performance and statistical variance of the instrument have been reported previously (8-10). Force measurements were performed using the trichotillometer on 10 subjects. The frontal area of scalp was divided into two 8×10 cm2 areas. On the right side 0.5 mL of a placebo vehicle was applied. […] After 45 minutes, ten hairs were plucked from each of the target areas with the trichotillometer.

Compound: CNC[C@H](O)c1cccc(O)c1 [phenylephrine]
- average increase of epilation force threshold: 172%
